Measurements from patent US10993923B2, “Method for ameliorating fibrosis using 1-[4-chloro-3-(trifluoromethyl)phenyl]-3-[3-(4-cyanophenoxy)phenyl]urea” (priority 2016, dated 2021).

Legend:
[1] = tested on: bleomycin-induced pulmonary fibrosis in mice; assay: Bleomycin-induced pulmonary fibrosis in mice; type: in vivo
Procedure: Male C57BL/6J mice (6-8 weeks of age) were obtained from the National Laboratory Animal Center (Taipei, Taiwan). All experimental procedures using these mice were performed according to protocols approved by the Institutional Laboratory Animal Care and Use Committee of Cardinal Tien Hospital. Each mouse was housed in cages (IVC; individual ventilation cage), and given daily photoperiod for 12 hours. Room temperature was maintained at 22-25° C., and humidity was maintained at 60 to 70%. Ventilation rate was remained at 16-18 times/hour. Food and drinking water (Altromin 1326 mice feed, Altromin, Germany) was freely given. All operations were executed in accordance with the standards of animal experimental animal operation of law. Management and feeding of animals were in compliant with guidance for care and use of laboratory (NRC 1996) rule approach implementation.
Pulmonary fibrosis was induced using bleomycin sulfate in male C57BL/6J mice (FIG. 1). The mice were intraperitoneally injected (IP) under anesthesia with Avertin (240 mg/Kg). On day 0 (n=20), a single dose of bleomycin (BLM) (1 mg=1000 IU, clinical level, Bleomycine Bellon, Sanofi-Aventis, France) was received in the mice (3.5 mg/kg) via intranasal instillation. The mice in the control group (n=10) were given saline only. On day 14 after intranasal BLM instillation, BLM treated mice were randomized into two groups receiving vehicle or 1-[4-chloro-3-(trifluoromethyl)phenyl]-3-[3-(4-cyanophenoxy)phenyl]urea until the end of the experiment. From day 14 to day 28, mice were administered intraperitoneally with 7.5 mg/kg/day of 1-[4-chloro-3-(trifluoromethyl)phenyl]-3-[3-(4-cyanophenoxy)phenyl]urea daily at a dose of 10 mL/kg body weight. The experimental time was 28 days and the 1-[4-chloro-3-(trifluoromethyl)phenyl]-3-[3-(4-cyanophenoxy)phenyl]urea compound was administered within 14 to 28 days.
The paraffin embedded tissue array blocks were cut into 4-μm-thick sections for H&E staining. For each case, carcinoma type, cell differentiation, growth pattern, tumor cell nuclear morphology, metaplasia, calcification, necrosis, mitosis count, invasion status and other specific differentiations were re-checked by two pathologists Immunohistochemical (IHC) staining was performed using a Ventana BenchMark XT automated stainer (Ventana, Tucson, Ariz.). Briefly, 4-μm-thick sections were cut consecutively from formalin-fixed, paraffin-embedded tissue. These sections were then mounted on silanized slides and allowed to dry overnight at 37° C. After deparaffinization and rehydration, the slides were incubated with 3% hydrogen peroxide solution for 5 minutes. After being washed with the supplied buffer, the tissue sections were repaired for 40 minutes with ethylenediamine tetraacetic acid.
Hydroxyproline analysis was performed using a hydroxyproline test kit following the manufacturer's instructions (Cell BioLabs, Inc., USA). Lung tissue was hydrolyzed in 12N HCl at 120° C. for 3 hours, and then washed and suspended in H2O. The tissue suspension was then mixed with chloramine-T at room temperature for 30 minutes. Then Ehrlich's reagent was added and reacted at 60° C. for 90 minutes. After that, the absorbance at 540 nm was measured.
Mice lung collagen was measured in lung homogenate using a Sircol assay (Biocolor, UK) following the manufacturer's instructions. Briefly, lung tissue homogenates were mixed with Sircol dye and centrifuged. The precipitate was resuspended in NaOH and the absorbance at 550 nm was measured. The absorbance obtained is directly proportional to the concentration of the recently synthesized collagen.
Whole-cell extracts were obtained via RIPA buffer (Millipore, USA) and protein concentrations were quantified via a BCA protein assay kit (Thermo Fisher Scientific, USA). 20 or 25 μg of protein was added to various percentages of SDS-sodium dodecyl sulfate-acrylamide gel and blotted onto a polyvinylidene fluoride (PVDF) membrane. […]

[2] = tested on: BDL-induced cholestasis fibrosis in mice; assay: Bile duct ligation (BDL) fibrosis mice prevention model; type: in vivo, Balb/C mice; conditions: 10 mg/kg from day 1 until sacrifice on day 14 of BDL; FIG. 13A, 13B
Text: In the bile duct ligation (BDL) mouse model, the common bile duct of Balb/C mice was double-ligated and excised. Mice were fed daily with vehicle or 1-[4-chloro-3-(trifluoromethyl)phenyl]-3-[3-(4-cyanophenoxy)phenyl]urea on day 1 or day 8 until they were sacrificed on day 14.
The mice liver samples were stored in 10% formaldehyde, dehydrated with gradient alcohol, embedded in paraffin blocks, sectioned to a thickness of 3 μm, placed on glass slides, and stained with Picrosirius Red Stain kit (ScyTek, USA), following the manufacturer's instructions. The severity of liver fibrosis was graded according to the Ishak fibrosis score. Quantitative collagen-positive area (qCPA) was determined by densitometry via ImageJ software. Hepatic hydroxyproline concentrations were measured by the hydroxyproline assay kit (Biovision, USA), following the manufacturer's instructions Immunohistochemistry was performed by the Leica BOND-MAX automatic chromatograph (Leica Biosystems, Germany), following the manufacturer's instructions.

[3] = tested on: TGF-β, PDGFR and STAT3 pathways in LX2 cells; assay: Western blot of signalling proteins in LX2 cells; type: cell-based, human
Procedure: Rat immortal hepatic stellate cell line HSC-T6 and LX2 human hepatic stellate cell line were provided by Professor Scott Friedman of Mount Sinai Hospital in New York, USA. The primary mouse HSCs were obtained via the way: after intubating the hepatic portal vein of the mouse, the cells were perfused with […] and ethylene glycol bis-aminoethyl ether tetraacetic acid (EGTA) buffer in situ, and then collagenase was injected to digest the liver tissue, and then the primary mouse HSCs were isolated by Histodnz gradient. HSC-T6 cells were cultured in Waymouth medium; LX2 cells and primary mouse HSCs were cultured in Dulbecco's Modified Eagle Medium (DMEM) containing 10% fetal bovine serum (FBS), 100 μg/mL penicillin, 100 μg/mL streptomycin, and 2 mM L-glutamine HSC-T6 cells, LX2 cells and primary mouse HSCs were cultured in a humidified incubator containing 5% carbon dioxide at 37° C. After adding the FBS, the resting HSC is started. […] Whole-cell extracts were obtained via RIPA buffer (Millipore, USA) and protein concentrations were quantified via a BCA protein assay kit (Thermo Fisher Scientific, USA). 20 or 25 μg of protein was added to various percentages of SDS-sodium dodecyl sulfate-acrylamide gel and blotted onto a polyvinylidene fluoride (PVDF) membrane. […] Proteins were detected by Immobilon Western Chemiluminescent HRP substrate (Millipore, USA) or ECL detection system (UVP Corporation, USA). […] Plasmids encoding the human wild-type SHP-1 and SHP-1 mutant, in which the N-SH2 domain was […] was changed into an […]) were cloned into the pCMV6-entry vector with myc-tag. These mutants were confirmed through DNA sequencing. […] (Chicago, Ill., USA).

[4] = Western blot, bleomycin model after treatment, FIG. 6

N#Cc1ccc(Oc2cccc(NC(=O)Nc3ccc(Cl)c(C(F)(F)F)c3)c2)cc1 [1-[4-chloro-3-(trifluoromethyl)phenyl]-3-[3-(4-cyanophenoxy)phenyl]urea]
tolerability (drug-related adverse events) ([1]; 7.5 mg/kg dose, daily, day 14 to day 28 after bleomycin): well tolerated
fibrin deposition (Masson's trichrome staining positive area) ([1]; 7.5 mg/kg/day, day 14 to 28, FIG. 3): significantly reduced
pathological changes of lung sections (hematoxylin-eosin staining) ([1]; 7.5 mg/kg/day, day 14 to 28, versus BLM group, FIG. 2): significantly improved
collagen content of mice lung ([1]; Sircol assay, 7.5 mg/kg/day, day 14 to 28, FIG. 5): improved the accumulation of collagen
P-STAT3 [1, 4]: decreased
amount of fibronectin [1, 4]: decreased
expression level of E-cadherin [1, 4]: increased
decrease of hydroxyproline (Hyp) content compared with the BLM group ([1]; lung tissue, 7.5 mg/kg/day, day 14 to 28, FIG. 4): about 22%
quantitative collagen-positive area (qCPA) [2]: significantly reduced
p-STAT3, ectopic expression of the vector control and wild-type SHP-1 ([3]; 5 μM, 24 hours, FIG. 17D, 17E): downregulated
p-PDGFR and p-Akt in the PDGFR pathway ([3]; 10 μM for 4 hours, then PDGF-BB 100 ng/mL 10 minutes, FIG. 14E): downregulated
p-Smad2 and p-Smad3 of the TGF-β pathway ([3]; 10 μM for 4 hours, then TGF-β1 10 ng/mL 20 minutes, FIG. 14D): downregulated
downregulation of p-STAT3 and cyclin D1, compared with sorafenib ([3]; FIG. 15A): more significant dose-escalation effects on the downregulation
